In the OligoGym collection:
HELM strings list units from the 5' end as sugar, base in round brackets, then linkage (d deoxyribose, r ribose, m 2'-O-methyl, p phosphodiester). Strings are as the collection lists them, not checked against the first reports. ss, as = sense and antisense strand; [fl2r] = 2'-fluoro

details: siRNA
Also: test system not given here.

For “RNA1{r(G)p.r(C)p.r(A)p.r(G)p.r(C)p.r(A)p.r(C)p.r(G)p.r(A)p.r(C)p.r(U)p.r(U)p.r(C)p.r(U)p.r(U)p.r(C)p.r(A)p.r(A)p.r(G)p.r(T)p.r(T)}|RNA2{m(C)p.m(U)p.m(U)p.m(G)p.m(A)p.m(A)p.m(G)p.m(A)p.m(A)p.m(G)p.m(U)p.m(C)p.m(G)p.m(U)p.m(G)p.m(C)p.m(U)p.m(G)p.m(C)p.r(T)p.r(T)}$$$RNA1{StrandType:ss}|RNA2{StrandType:as}$”, which target mRNA knockdown is on record?
Its target mRNA knockdown is 16%.

Which target mRNA knockdown does the source give for “RNA1{r(G)p.r(C)p.r(A)p.r(G)p.r(C)p.r(A)p.r(C)p.r(G)p.r(A)p.r(C)p.r(U)p.r(U)p.r(C)p.r(U)p.r(U)p.r(C)p.r(A)p.r(A)p.r(G)p.r(U)p.r(U)}|RNA2{r(C)p.[fl2r](U)p.r(U)p.r(G)p.r(A)p.r(A)p.r(G)p.r(A)p.r(A)p.r(G)p.r(U)p.r(C)p.r(G)p.r(U)p.r(G)p.r(C)p.r(U)p.r(G)p.r(C)p.r(U)p.r(U)}$$$RNA1{StrandType:ss}|RNA2{StrandType:as}$” here?
Its target mRNA knockdown is 73.8%.

For “RNA1{r(G)p.r(C)p.r(A)p.r(G)p.r(C)p.r(A)p.r(C)p.r(G)p.r(A)p.r(C)p.r(U)p.r(U)p.r(C)p.r(U)p.r(U)p.r(C)p.r(A)p.r(A)p.r(G)p.r(U)p.r(U)}|RNA2{r(C)p.m(U)p.r(U)p.r(G)p.r(A)p.r(A)p.r(G)p.r(A)p.r(A)p.r(G)p.r(U)p.r(C)p.r(G)p.r(U)p.r(G)p.r(C)p.r(U)p.r(G)p.r(C)p.r(U)p.r(U)}$$$RNA1{StrandType:ss}|RNA2{StrandType:as}$”, which target mRNA knockdown is on record?
The target mRNA knockdown was 71.7%.

With “RNA1{r(G)p.r(C)p.r(C)p.r(U)p.[fl2r](C)p.r(U)p.r(C)p.[fl2r](U)p.r(A)p.r(U)p.r(C)p.r(C)p.r(U)p.[fl2r](U)p.r(A)p.r(G)p.r(C)p.r(U)p.r(U)p.r(T)p.r(T)}|RNA2{r(A)p.r(A)p.r(G)p.r(C)p.[fl2r](U)p.r(A)p.r(A)p.r(G)p.r(G)p.r(A)p.[fl2r](U)p.r(A)p.r(G)p.r(A)p.r(G)p.r(A)p.r(G)p.r(G)p.r(C)p.r(T)p.r(T)}$$$RNA1{StrandType:ss}|RNA2{StrandType:as}$” as the substance, how does the target mRNA knockdown read?
The target mRNA knockdown was 47%.

Which target mRNA knockdown does the source give for “RNA1{r(G)p.r(C)p.r(C)p.r(U)p.r(C)p.r(U)p.r(C)p.r(U)p.r(A)p.r(U)p.r(C)p.r(C)p.r(U)p.r(U)p.r(A)p.r(G)p.r(C)p.r(U)p.r(U)p.r(T)p.r(T)}|RNA2{r(A)p.r(A)p.r(G)p.r(C)p.[fl2r](U)p.r(A)p.r(A)p.r(G)p.r(G)p.r(A)p.[fl2r](U)p.r(A)p.r(G)p.r(A)p.r(G)p.r(A)p.r(G)p.r(G)p.r(C)p.r(T)p.r(T)}$$$RNA1{StrandType:ss}|RNA2{StrandType:as}$” here?
Its target mRNA knockdown is 48%.

With “RNA1{r(G)p.r(C)p.r(G)p.r(A)p.r(G)p.m(C)p.r(A)p.r(G)p.r(A)p.r(G)p.r(A)p.r(A)p.r(U)p.r(C)p.m(U)p.r(A)p.r(C)p.r(C)p.r(U)p.r(T)p.r(T)}|RNA2{r(A)p.r(G)p.r(G)p.m(U)p.r(A)p.r(G)p.r(A)p.r(U)p.r(U)p.r(C)p.r(U)p.r(C)p.m(U)p.r(G)p.r(C)p.r(U)p.r(C)p.r(G)p.r(C)p.r(T)p.r(T)}$$$RNA1{StrandType:ss}|RNA2{StrandType:as}$” as the substance, how does the target mRNA knockdown read?
The target mRNA knockdown was 90%.

With “RNA1{r(G)p.r(C)p.r(G)p.r(A)p.r(G)p.r(C)p.r(A)p.r(G)p.r(A)p.r(G)p.r(A)p.r(A)p.r(U)p.r(C)p.m(U)p.r(A)p.r(C)p.r(C)p.r(U)p.r(T)p.r(T)}|RNA2{r(A)p.r(G)p.r(G)p.m(U)p.r(A)p.r(G)p.r(A)p.r(U)p.r(U)p.r(C)p.r(U)p.r(C)p.r(U)p.r(G)p.r(C)p.r(U)p.r(C)p.r(G)p.r(C)p.r(T)p.r(T)}$$$RNA1{StrandType:ss}|RNA2{StrandType:as}$” as the substance, how does the target mRNA knockdown read?
The target mRNA knockdown was 90%.

With “RNA1{r(G)p.r(C)p.r(G)p.r(C)p.r(U)p.r(G)p.r(C)p.r(U)p.r(G)p.r(G)p.r(U)p.r(G)p.r(C)p.r(C)p.r(A)p.r(A)p.r(C)p.r(C)p.r(C)p.d(T)p.d(T)}|RNA2{r(G)p.r(G)p.r(G)p.r(U)p.r(U)p.r(G)p.r(G)p.r(C)p.r(A)p.r(C)p.r(C)p.r(A)p.r(G)p.r(C)p.r(A)p.r(G)p.r(C)p.r(G)p.r(C)p.d(T)p.d(T)}$$$RNA1{StrandType:ss}|RNA2{StrandType:as}$” as the substance, how does the target mRNA knockdown read?
Its target mRNA knockdown is 74%.

With “RNA1{r(G)p.r(C)p.r(U)p.r(G)p.[fl2r](U)p.r(A)p.r(A)p.r(C)p.r(C)p.r(U)p.r(C)p.r(G)p.r(G)p.r(A)p.r(G)p.r(A)p.r(G)p.r(U)p.r(U)p.r(T)p.r(T)}|RNA2{r(A)p.r(A)p.r(C)p.r(U)p.r(C)p.r(U)p.r(C)p.r(C)p.r(G)p.r(A)p.r(G)p.r(G)p.r(U)p.[fl2r](U)p.r(A)p.r(C)p.r(A)p.r(G)p.r(C)p.r(T)p.r(T)}$$$RNA1{StrandType:ss}|RNA2{StrandType:as}$” as the substance, how does the target mRNA knockdown read?
Its target mRNA knockdown is 69%.

Which target mRNA knockdown does the source give for “RNA1{r(G)p.r(C)p.r(U)p.r(G)p.r(A)p.r(A)p.r(C)p.[fl2r](U)p.r(A)p.r(G)p.r(U)p.r(C)p.r(G)p.r(A)p.r(A)p.r(A)p.r(G)p.r(A)p.r(A)p.r(T)p.r(T)}|RNA2{r(U)p.r(U)p.r(C)p.r(U)p.r(U)p.r(U)p.r(C)p.r(G)p.r(A)p.r(C)p.[fl2r](U)p.r(A)p.r(G)p.r(U)p.r(U)p.r(C)p.r(A)p.r(G)p.r(C)p.r(T)p.r(T)}$$$RNA1{StrandType:ss}|RNA2{StrandType:as}$” here?
Its target mRNA knockdown is 79%.

With “RNA1{r(G)p.r(C)p.r(U)p.r(G)p.r(A)p.r(G)p.r(G)p.r(A)p.r(A)p.r(A)p.r(G)p.r(G)p.r(G)p.r(A)p.r(C)p.r(A)p.r(U)p.r(C)p.r(U)p.r(T)p.r(T)}|RNA2{r(A)p.r(G)p.m(A)p.m(U)p.r(G)p.r(U)p.r(C)p.r(C)p.r(C)p.r(U)p.r(U)p.r(U)p.r(C)p.r(C)p.r(U)p.r(C)p.r(A)p.r(G)p.r(C)p.r(T)p.r(T)}$$$RNA1{StrandType:ss}|RNA2{StrandType:as}$” as the substance, how does the target mRNA knockdown read?
Its target mRNA knockdown is 78%.

With “RNA1{r(G)p.r(C)p.r(U)p.r(U)p.m(U)p.m(A)p.r(A)p.r(G)p.r(G)p.r(A)p.r(A)p.r(C)p.m(U)p.r(G)p.r(G)p.r(A)p.r(A)p.r(G)p.r(G)p.r(T)p.r(T)}|RNA2{r(C)p.r(C)p.r(U)p.r(U)p.r(C)p.m(C)p.r(A)p.r(G)p.r(U)p.r(U)p.r(C)p.r(C)p.r(U)p.m(U)p.m(A)p.r(A)p.r(A)p.r(G)p.r(C)p.r(T)p.r(T)}$$$RNA1{StrandType:ss}|RNA2{StrandType:as}$” as the substance, how does the target mRNA knockdown read?
Its target mRNA knockdown is 72%.

Which target mRNA knockdown does the source give for “RNA1{r(G)p.r(C)p.r(U)p.r(U)p.m(U)p.r(A)p.r(A)p.r(G)p.r(G)p.r(A)p.r(A)p.r(C)p.m(U)p.r(G)p.r(G)p.r(A)p.r(A)p.r(G)p.r(G)p.r(T)p.r(T)}|RNA2{r(C)p.r(C)p.r(U)p.r(U)p.r(C)p.m(C)p.r(A)p.r(G)p.r(U)p.r(U)p.r(C)p.r(C)p.r(U)p.m(U)p.r(A)p.r(A)p.r(A)p.r(G)p.r(C)p.r(T)p.r(T)}$$$RNA1{StrandType:ss}|RNA2{StrandType:as}$” here?
The target mRNA knockdown was 37%.

For “RNA1{r(G)p.r(C)p.r(U)p.r(U)p.r(C)p.r(G)p.r(G)p.r(A)p.r(A)p.r(A)p.r(C)p.[fl2r](U)p.[fl2r](G)p.r(G)p.r(A)p.[fl2r](C)p.r(A)p.r(U)p.r(C)p.r(T)p.r(T)}|RNA2{r(G)p.r(A)p.[fl2r](U)p.r(G)p.r(U)p.r(C)p.[fl2r](C)p.[fl2r](A)p.r(G)p.r(U)p.r(U)p.r(U)p.r(C)p.r(C)p.r(G)p.r(A)p.r(A)p.r(G)p.r(C)p.r(T)p.r(T)}$$$RNA1{StrandType:ss}|RNA2{StrandType:as}$”, which target mRNA knockdown is on record?
The target mRNA knockdown was 87%.
